Several values for one entry are separate records, joined by “and”; a condition that tells them apart may be missing. Equal values may be shown once. Toxic doses and inconclusive results are not listed.
Test system: P388 leukemia ip, CD2F1 mice, survival T/C
Test: NCI In Vivo Anticancer Drug Screen. Data for tumor model P388 Leukemia (intraperitoneal) in CD2F1 (CDF1) mice
Conditions: endpoint: median survival time, higher = longer survival
Outline: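 Mice carrying the transplanted tumor received test compound or vehicle. Survival was recorded in each group, and the value is the treated-group measurement divided by that of the vehicle-treated control group.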

[1] = dose: 100.0 mg/kg/injection, schedule: Q01DX009 (ip), vehicle: saline
[2] = dose: 50.0 mg/kg/injection, schedule: Q01DX005 (ip), vehicle: saline with Tween-80
[3] = dose: 100.0 mg/kg/injection, schedule: Q01DX005 (ip), vehicle: saline with Tween-80
[4] = dose: 200.0 mg/kg/injection, schedule: Q01DX005 (ip), vehicle: saline with Tween-80
[5] = dose: 25.0 mg/kg/injection, schedule: Q01DX005 (ip), vehicle: saline
[6] = dose: 50.0 mg/kg/injection, schedule: Q01DX005 (ip), vehicle: saline
[7] = dose: 100.0 mg/kg/injection, schedule: Q01DX005 (ip), vehicle: saline
[8] = dose: 200.0 mg/kg/injection, schedule: Q01DX005 (ip), vehicle: saline
[9] = dose: 50.0 mg/kg/injection, schedule: Q01DX009 (ip), vehicle: saline with Tween-80
[10] = dose: 100.0 mg/kg/injection, schedule: Q01DX009 (ip), vehicle: saline with Tween-80
[11] = dose: 200.0 mg/kg/injection, schedule: Q01DX009 (ip), vehicle: saline with Tween-80
[12] = dose: 12.5 mg/kg/injection, schedule: Q01DX009 (ip), vehicle: saline
[13] = dose: 25.0 mg/kg/injection, schedule: Q01DX009 (ip), vehicle: saline
[14] = dose: 100.0 mg/kg/injection, schedule: Q04DX002 (ip), vehicle: Klucel (hydroxypropylcellulose) (HPC)
[15] = dose: 200.0 mg/kg/injection, schedule: Q04DX002 (ip), vehicle: Klucel (hydroxypropylcellulose) (HPC)
[16] = dose: 12.5 mg/kg/injection, schedule: Q01DX005 (ip), vehicle: Klucel (hydroxypropylcellulose) (HPC)
[17] = dose: 25.0 mg/kg/injection, schedule: Q01DX005 (ip), vehicle: Klucel (hydroxypropylcellulose) (HPC)
[18] = dose: 50.0 mg/kg/injection, schedule: Q01DX009 (ip), vehicle: Klucel (hydroxypropylcellulose) (HPC)
[19] = dose: 60.0 mg/kg/injection, schedule: Q01DX005 (ip), vehicle: saline with Tween-80
[20] = dose: 120.0 mg/kg/injection, schedule: Q01DX005 (ip), vehicle: saline with Tween-80
[21] = dose: 240.0 mg/kg/injection, schedule: Q01DX005 (ip), vehicle: saline with Tween-80
[22] = dose: 50.0 mg/kg/injection, schedule: Q01DX005 (ip), vehicle: Klucel (hydroxypropylcellulose) (HPC)

COc1ccc(CCNC(=O)Cc2ccc(OC)c(OCc3ccccc3)c2)cc1OC
T/C (dose: 25.0 mg/kg/injection, schedule: Q01DX009 (ip), vehicle: other): 95 % of control | T/C (dose: 50.0 mg/kg/injection, schedule: Q01DX009 (ip), vehicle: other): 95 % of control | T/C (dose: 100.0 mg/kg/injection, schedule: Q01DX009 (ip), vehicle: other): 89 % of control | T/C (dose: 200.0 mg/kg/injection, schedule: Q01DX009 (ip), vehicle: other): 86 % of control | T/C (dose: 400.0 mg/kg/injection, schedule: Q01DX009 (ip), vehicle: other): 89 % of control

Cc1cccc(O)c1O
T/C [1]: 102 % of control | T/C (dose: 200.0 mg/kg/injection, schedule: Q01DX009 (ip), vehicle: saline): 121 % of control and 122 % of control

CCN(CC)CCCNCc1cc(-c2ccccc2)nc2cc(Cl)ccc12
T/C [2]: 102 % of control | T/C [3]: 100 % of control | T/C [4]: 100 % of control

COC(=O)CC(N)C(=O)O (stereo not given)
T/C (dose: 12.5 mg/kg/injection, schedule: Q01DX005 (ip), vehicle: saline): 97 % of control | T/C [5]: 89 % of control | T/C [6]: 99 % of control | T/C [7]: 97 % of control | T/C [8]: 94 % of control

C=CCN(CC=C)P1(=O)NCCCO1 (stereo not given)
T/C [6]: 103 % of control | T/C [7]: 102 % of control | T/C [8]: 105 % of control

O=c1c2c([nH]c3c1ccc1[nH]c4c(c(=O)c13)CCCC4)CCCC2
T/C [9]: 90 % of control | T/C [10]: 91 % of control | T/C [11]: 97 % of control

CC(=O)Nc1cc(C(=O)O)cc(C(=O)O)c1
T/C [9]: 109 % of control | T/C [10]: 105 % of control | T/C [11]: 92 % of control

O=C1C=C(Sc2ccc3ccccc3c2)C(=O)c2ccccc21
T/C (dose: 3.13 mg/kg/injection, schedule: Q01DX009 (ip), vehicle: saline with Tween-80): 101 % of control | T/C (dose: 6.25 mg/kg/injection, schedule: Q01DX009 (ip), vehicle: saline with Tween-80): 105 % of control | T/C (dose: 12.5 mg/kg/injection, schedule: Q01DX009 (ip), vehicle: saline with Tween-80): 104 % of control | T/C (dose: 25.0 mg/kg/injection, schedule: Q01DX009 (ip), vehicle: saline with Tween-80): 95 % of control | T/C [9]: 104 % of control

C[N+]1(C)Cc2ccccc2C1
T/C [12]: 105 % of control | T/C [13]: 108 % of control

CN(Cc1c(O)ccc2ccccc12)Cc1c(O)ccc2ccccc12
T/C [2]: 97 % of control | T/C [3]: 109 % of control | T/C [4]: 100 % of control

CSC(=S)n1nc(-c2ccccc2)c(N=Nc2ccc(Br)cc2)c1C
T/C [14]: 98 % of control | T/C [15]: 100 % of control | T/C (dose: 400.0 mg/kg/injection, schedule: Q04DX002 (ip), vehicle: Klucel (hydroxypropylcellulose) (HPC)): 94 % of control

NC(Cc1ccccc1)=S=O
T/C [14]: 97 % of control | T/C [15]: 95 % of control

C[CH2][Sn]([Cl])([CH2]C)[O][Sn]([CH2]C)([CH2]C)[O][Sn]([Cl])([CH2]C)[CH2]C
T/C (dose: 6.25 mg/kg/injection, schedule: Q01DX005 (ip), vehicle: Klucel (hydroxypropylcellulose) (HPC)): 118 % of control and 121 % of control | T/C [16]: 113 % of control | T/C [17]: 111 % of control

C/C=C\C(C)=C/C(C)C(=O)CC(O)CC1CC(=O)NC(=O)C1 (stereo not given)
T/C (dose: 1.56 mg/kg/injection, schedule: Q01DX009 (ip), vehicle: DMSO): 91 % of control | T/C (dose: 3.12 mg/kg/injection, schedule: Q01DX009 (ip), vehicle: DMSO): 98 % of control | T/C (dose: 6.25 mg/kg/injection, schedule: Q01DX009 (ip), vehicle: DMSO): 93 % of control | T/C (dose: 12.5 mg/kg/injection, schedule: Q01DX009 (ip), vehicle: DMSO): 100 % of control | T/C (dose: 25.0 mg/kg/injection, schedule: Q01DX009 (ip), vehicle: DMSO): 107 % of control

CCCCCCCCCCCCCCCCCCOCC(O)CN(CCO)CCO (stereo not given)
T/C (dose: 12.5 mg/kg/injection, schedule: Q01DX009 (ip), vehicle: Klucel (hydroxypropylcellulose) (HPC)): 91 % of control | T/C (dose: 25.0 mg/kg/injection, schedule: Q01DX009 (ip), vehicle: Klucel (hydroxypropylcellulose) (HPC)): 91 % of control | T/C [18]: 96 % of control

O=C1OS(=O)(=O)c2cc3c(cc21)C1C(C2C3C3(Cl)C(Cl)=C(Cl)C2(Cl)C3(Cl)Cl)C2(Cl)C(Cl)=C(Cl)C1(Cl)C2(Cl)Cl (stereo not given)
T/C [12]: 97 % of control | T/C [13]: 100 % of control | T/C (dose: 50.0 mg/kg/injection, schedule: Q01DX009 (ip), vehicle: saline): 100 % of control and 104 % of control | T/C [1]: 107 % of control

Cc1cc(=O)oc2nn(CCO)c(C)c12
T/C [19]: 105 % of control | T/C [20]: 100 % of control | T/C [21]: 91 % of control

CCCCCN(CCCCC)CCC(O)c1cccc2ccccc12 (stereo not given)
T/C (dose: 12.5 mg/kg/injection, schedule: Q01DX005 (ip), vehicle: saline with Tween-80): 100 % of control | T/C (dose: 25.0 mg/kg/injection, schedule: Q01DX005 (ip), vehicle: saline with Tween-80): 105 % of control | T/C [2]: 103 % of control and 113 % of control

CCCCC(NC(=O)OCc1ccccc1)C(=O)NC(CC(C)C)C(=O)O (stereo not given)
T/C [22]: 100 % of control | T/C (dose: 100.0 mg/kg/injection, schedule: Q01DX005 (ip), vehicle: Klucel (hydroxypropylcellulose) (HPC)): 100 % of control | T/C (dose: 200.0 mg/kg/injection, schedule: Q01DX005 (ip), vehicle: Klucel (hydroxypropylcellulose) (HPC)): 92 % of control

O=C1c2c3c(c4c(c2C(=O)c2c5c(c6c(c21)CCC6)CCC5)CCCC4)CCCC3
T/C (dose: 20.0 mg/kg/injection, schedule: Q01DX009 (ip), vehicle: saline with Tween-80): 100 % of control | T/C (dose: 40.0 mg/kg/injection, schedule: Q01DX009 (ip), vehicle: saline with Tween-80): 99 % of control | T/C (dose: 80.0 mg/kg/injection, schedule: Q01DX009 (ip), vehicle: saline with Tween-80): 93 % of control

CC(=O)Oc1c(OC(C)=O)c(C=O)c2c(OC(C)=O)c(-c3c(C)cc4c(C(C)C)c(OC(C)=O)c(OC(C)=O)c(C=O)c4c3OC(C)=O)c(C)cc2c1C(C)C
T/C [16]: 102 % of control | T/C [17]: 107 % of control | T/C [22]: 103 % of control and 111 % of control

O=[N+]([O-])c1ccc(Nc2cn[nH]n2)cc1
T/C (dose: 60.0 mg/kg/injection, schedule: Q01DX005 (ip), vehicle: Klucel (hydroxypropylcellulose) (HPC)): 100 % of control | T/C (dose: 120.0 mg/kg/injection, schedule: Q01DX005 (ip), vehicle: Klucel (hydroxypropylcellulose) (HPC)): 102 % of control | T/C (dose: 240.0 mg/kg/injection, schedule: Q01DX005 (ip), vehicle: Klucel (hydroxypropylcellulose) (HPC)): 99 % of control

COC(=O)c1ccc(SCCC(=O)CN2C(=O)c3ccccc3C2=O)cc1
T/C [18]: 94 % of control | T/C (dose: 100.0 mg/kg/injection, schedule: Q01DX009 (ip), vehicle: Klucel (hydroxypropylcellulose) (HPC)): 93 % of control | T/C (dose: 200.0 mg/kg/injection, schedule: Q01DX009 (ip), vehicle: Klucel (hydroxypropylcellulose) (HPC)): 86 % of control

COc1cc(NS(C)(=O)=O)ccc1Nc1c2ccc([N+](=O)[O-])cc2nc2c(C)cccc12
T/C (dose: 3.0 mg/kg/injection, schedule: Q01DX009 (ip), vehicle: saline with Tween-80): 272 % of control | T/C (dose: 3.0 mg/kg/injection, schedule: Q04DX003 (ip), vehicle: saline with Tween-80): 181 % of control | T/C (dose: 6.0 mg/kg/injection, schedule: Q01DX009 (ip), vehicle: saline with Tween-80): 100 % of control | T/C (dose: 6.0 mg/kg/injection, schedule: Q04DX003 (ip), vehicle: saline with Tween-80): 209 % of control | T/C (dose: 7.9 mg/kg/injection, schedule: Q04DX003 (ip), vehicle: saline with Tween-80): 218 % of control | T/C (dose: 12.0 mg/kg/injection, schedule: Q04DX003 (ip), vehicle: saline with Tween-80): 181 % of control and 231 % of control

ClC(Cl)(Cl)C(c1ccc(Br)cc1)c1ccc(Br)cc1
T/C [19]: 95 % of control | T/C [20]: 94 % of control | T/C [21]: 95 % of control

CCN(CC)CCN1C(=O)c2cccc3cc(OC)cc(c23)C1=O
T/C [5]: 104 % of control | T/C [6]: 100 % of control | T/C [7]: 107 % of control

Nc1ncc2nc3c4ccccc4c(=O)cc-3oc2n1
T/C [2]: 96 % of control | T/C [3]: 96 % of control | T/C [4]: 91 % of control

Source: PubChem BioAssay AID330 (DTP/NCI, 2004)
